ChEMBL document CHEMBL1154198, “Chemical genetics of Plasmodium falciparum” (Nature, 2010)

Columns and labels:
[1] = system: Plasmodium falciparum; assay: ST_JUDE: Plasmodium falciparum K1 EC50 (uM) as measured by SYBR green dye; format: functional, organism-based
[2] = system: Plasmodium falciparum; assay: ST_JUDE: Plasmodium falciparum 3D7 EC50 (uM) as measured by SYBR green dye; format: functional, organism-based

Compound | EC50 [1] [µM] | EC50 [2] [µM]
CCN1CCN(c2cc(C)c3cc(NC(=O)/C=C/c4ccccc4OC(C)C)ccc3n2)CC1 | 2.98 | 1.06
Oc1c(C(Nc2ccccn2)c2cccc(Cl)c2Cl)ccc2cccnc12 (stereo not given) | 2.44 | 1.77
O=[N+]([O-])c1ccc(O)c(-c2cc(C(F)(F)F)nc(-c3ccccc3)n2)c1 | 3.25 | 1.75
CCCCCN1COc2ccc3c4c(c(=O)oc3c2C1)CCCC4 | 0.822 | 1.69
CCc1c(C)nc(-n2nc(C)cc2NC(=O)c2ccc(C(C)(C)C)cc2)nc1O | > 15 | > 15
Cc1ccc(/C=C2\Oc3c(ccc(O)c3CN3CCCCC3)C2=O)cc1 | 0.28 | 2.89
Brc1ccc(C2=CC(c3ccccc3)n3ncnc3N2)cc1 (stereo not given) | > 15 | > 15
CC(C)Nc1c2ccccc2nc2ccccc12 | 4.07 | 2.54
CCCc1cc(O)nc(-n2nc(C)cc2NC(=O)c2ccc(C)cc2)n1 | > 15 | > 15
Cc1ccc(CNC(=O)/C=C/c2ccc([N+](=O)[O-])cc2)cc1 | > 15 | > 15
CC(C)CN1C(=O)c2ccccc2C(C(=O)Nc2ccc(Cl)cn2)C1c1cccs1 (stereo not given) | 4.78 | 3.44
COc1ccc(CCN2C(=O)c3[nH]nc(-c4ccccc4O)c3C2c2ccc(F)cc2)cc1 (stereo not given) | > 15 | > 15
Oc1ccccc1Nc1nc(-c2cccnc2)nc2ccccc12 | 2.1 | > 15
OCCC1CN(Cc2c(F)cccc2F)CCN1Cc1ccc(F)cc1 (stereo not given) | > 15 | > 15
CCCCn1c(=O)c2c(nc3n(-c4ccc(C)c(Cl)c4)c(C)cn23)n(C)c1=O | > 15 | > 15
Cc1ccc(-n2cc(CN3CCCC(C(N)=O)C3)c(-c3cccc(C)c3)n2)cc1 (stereo not given) | 4.22 | 5.24
CCCC(=O)NC(c1ccccc1OC)c1ccc2cccnc2c1O (stereo not given) | 3.43 | 2.2
CCN(CC)CCNC(=O)c1c(C)oc2c1C(=O)c1ccccc1C2=O | 0.191 | 0.256

Compound | EC50 [1] [µM] | EC50 [2] [µM]
COc1nc(-c2ccncc2)nc2ccccc12 | > 15 | > 15
CCOc1ccc(C(=O)Nc2cc(C)nn2-c2nc(C)c(CC)c(O)n2)cc1OCC | > 15 | > 15
O=C1CC(c2ccc(C(F)(F)F)cc2)C2=C(CC(c3ccccc3Cl)CC2=O)N1 (stereo not given) | 0.828 | 1.66
CSc1cccc(NC(=O)Cn2c(=O)sc3ccccc32)c1 | > 15 | > 15
CCCCc1ccc(NS(=O)(=O)c2cc3c4c(c2)CCN4C(=O)CC3)cc1 | > 15 | > 15
c1cncc(CN2CCN(Cc3cccc4ccccc34)CC2)c1 | > 15 | > 15
COc1ccc(C(NC(=O)c2cccnc2)c2cc(Cl)c3cccnc3c2O)cc1 (stereo not given) | 1.5 | 4.76
Cc1ccc(Nc2nc(NCCO)c3ccccc3n2)cc1C | 2.27 | 0.843
CC(=O)N(C1=C(N2CCCC2)C(=O)c2ccccc2C1=O)C1CCCCC1 | 0.399 | 0.28
CCCCc1ccc2nc(C)c(CN(C)C3CCN(C)CC3)c(O)c2c1 | > 15 | > 15
Cc1ccccc1-n1c(N)c(C#N)c2nc3ccccc3nc21 | 4.25 | 1.64
O=[N+]([O-])c1ccccc1C(Nc1ccccn1)c1cc(Cl)c2cccnc2c1O (stereo not given) | > 15 | 8.67
Cc1cccc(NC(c2ccccc2C)c2ccc3ccc(C)nc3c2O)n1 (stereo not given) | 5.17 | 7.03
Cc1c(C(=O)Nc2cc(Cl)ccc2Cl)cccc1[N+](=O)[O-] | > 15 | > 15
Cc1c(Cl)cccc1NC(=O)c1ccccc1[N+](=O)[O-] | > 15 | > 15
CCc1cccc2c(C#N)cn(Cc3ccc(Br)cc3)c12 | 4 | 3.67
COc1ccc(OC)c2sc(N(Cc3cccnc3)C(=O)c3cccc(F)c3)nc12 | 4.97 | 4.1
